Assay results taken from patent US20260248819A1, “MULTI-COMPONENT PHARMACEUTICAL COMPOSITIONS AND KITS CONTAINING NITRIC OXIDE RELEASING COMPOUNDS AND METHODS OF USING SAME” (priority 2022, published 2026).

Tests used:
M. chimaera N0124 = experiment: Checkerboard assay, MD3 combined with a second antibiotic (NTM); type: cell-based, Mycobacterium chimaera; conditions: strain N0124, aerobic
Description: (§1) The checkerboard method was performed as follows. MD3 and the second antibiotic were tested at four times (4×) their minimum inhibitory concentration (MIC) alone (see Table 3). Stock solutions of MD3 and the secondary antibiotics were prepared at 4× the final concentration (i.e., 16× the MIC; called the 4× stocks).
(§2) Bacterial cultures were prepared from frozen glycerol stocks stored at −80° C. by streaking on agar plates (see Table 4). Several well-isolated colonies were suspended in IX PBS, then diluted to 1×10^6 CFU/ml in liquid media. The cultures were diluted to 5×10^5 CFU/ml, when added to the antibiotic combinations in the checkerboard assay plate. Because colonies from strains N0010, N0046, and N0124 are difficult to suspend homogenously, they were first sub-cultured in 7H9 liquid media containing Middlebrook ADC supplement and 0.05% Tween-80, then incubated at 37° C. shaking for 3 days. This subculture was used to prepare the 1×10^6 CFU/ml culture.
(§3) To prepare the checkerboard assay plates, phosphate buffered saline (PBS) was added to wells BI through H8 of a 96-well plate. […]
(§4) The FICI was calculated for each well along the growth/no-growth border of the checkerboard assay plate. […]

[1] = system: M. abscessus strain N0010; experiment: as above; type: cell-based, Mycobacterium abscessus; conditions: aerobic
Description: as §1, §2, §3, §4

[2] = system: M. abscessus strain N0046; experiment: as above; type: cell-based, Mycobacterium abscessus subsp. bolletii; conditions: aerobic
Description: as §1, §2, §3, §4

M. massiliense N0130 = experiment: as above; type: cell-based, Mycobacterium massiliense; conditions: strain N0130, aerobic
Description: as §1, §2
(§5) To prepare the checkerboard assay plates, phosphate buffered saline (PBS) was added to wells BI through H8 of a 96-well plate. Next, 200 μl of the 4× second antibiotic stock was added to the empty wells in A1 through A8 of a 96-well plate, then serially diluted 1:1 down the plate using a multichannel pipette, stopping at row G. The final 100 μl from row G was discarded. […] At this step, all wells contain 4× the target concentration of the second antibiotic. Next, 100 μl of the 4× MD3 stock solution was added to wells A1 through H1 and serially diluted 1:1 across the plate to column 7 using a multichannel pipette. The final 100 μl in […] was discarded. […] After this step, all wells contain 2× the target concentrations for both MD3 and the second antibiotic. The wells in column 9 contain media alone, serving as media controls. The wells in column 10 contain media and bacteria, serving as growth controls. Finally, 100 μl of 5×10^5 CFU/ml bacterial culture was added to each well.
The FICI was calculated for each well along the growth/no-growth border of the checkerboard assay plate. If the FICI of any well was greater than 4, antagonism was reported; otherwise, the lowest FICI value was reported. FICI values of ≤0.5 are considered synergistic, values of 0.51 to 1 are additive, and values of greater than 1 to 4 are indifferent. The rationale for this method of analysis is that, if any ratio of MD3:antibiotic is synergistic, then that combination has the potential for synergy, even if other ratios are not synergistic. […] If an experiment was repeated twice and the same classification observed (e.g., synergy observed in both replicates), then the average FICI was reported for that drug combination. […]

[3] = system: P. aeruginosa strain PAK (N0049); experiment: Checkerboard assay, MD3 combined with a second antibiotic; type: cell-based, Pseudomonas aeruginosa; conditions: for Lowest FICI, rep 1 / Lowest FICI, rep 2 / Lowest FICI, rep 3: antibiotic combined with MD3
Description: To quantify the combined effects of MD3 and a secondary antibiotic, a checkerboard assay was used, which is a two-dimensional, two-agent serial dilution that quantifies the effect of each drug alone and in combination. In patients with underlying pulmonary disease such as bronchiectasis, significant mucus in the lung results in bacterial infections that are primarily microaerobic (little oxygen) or anaerobic (no oxygen). Therefore, combinations of MD3 and six secondary antibiotics were evaluated under both aerobic and anaerobic conditions for a representative organism, Pseudomonas aeruginosa.
as §1
MD3 and secondary antibiotics were tested at 4× their minimum inhibitory concentration (MIC) alone. […] MD3 and antibiotics were tested across a 7-point range of 2-fold concentration, as detailed in Table 3.
as §2, §5
For experiments in which P. aeruginosa was grown under anaerobic conditions, 90 mM KNO3 was added to the CAMHB media, and the checkerboard assay plates were incubated in an anaerobic box containing anaerobic sachets.
The FICI was calculated for each well along the growth/no-growth border of the checkerboard assay plate. If the FICI of any well was greater than 4, antagonism was reported; otherwise, the lowest FICI value was reported. FICI values of ≤0.5 are considered synergistic, values of 0.51 to 1 are additive, and values of greater than 1 to 4 are indifferent. The rationale for this method of analysis is that, if any ratio of MD3:antibiotic is synergistic, then that combination has the potential for synergy, even if other ratios are not synergistic.

[4] = system: Candida auris (Strain N0220); experiment: Checkerboard assay, MD3 combined with a secondary antifungal; type: cell-based; conditions: for Interaction (at 24 hours) / Lowest FICI (at 24 hours) / Interaction (at 48 hours) / Lowest FICI (at 48 hours): antifungal combined with MD3
Source text: (§6) To quantify the combined effects of MD3 and a secondary antifungal, a checkerboard assay was used as described above in Example 1. The antibiotics tested in this study included voriconazole, a triazole antifungal that inhibits the growth of the fungi causing the infection; itraconazole, an azole antifungal that inhibits the growth of fungi; and amphotericin B, a polyene antifungal that binds to ergosterol in fungal cell membranes, developing holes in the membrane and allowing cell components to leak out, causing cell death.
(§7) The fungal species used in this study included Aspergillus fumigatus (strain N0219) and Candida auris (Strain N0220). The checkerboard method was performed as described above in Example 1. The effects of the antifungal combinations were classified according to the fractional inhibitory concentration index (FICI) as described above in Example 1 at time points of 24 hours and 48 hours.

S. aureus strain N0040 = experiment: Checkerboard assay, MD3 combined with a second antibiotic; type: cell-based, Staphylococcus aureus; conditions: aerobic
Description: as §1, §2, §5
The FICI was calculated for each well along the growth/no-growth border of the checkerboard assay plate. If the FICI of any well was greater than 4, antagonism was reported; otherwise, the lowest FICI value was reported. FICI values of ≤0.5 are considered synergistic, values of 0.51 to 1 are additive, and values of greater than 1 to 4 are indifferent. The rationale for this method of analysis is that, if any ratio of MD3:antibiotic is synergistic, then that combination has the potential for synergy, even if other ratios are not synergistic. […] If an experiment was repeated twice and the same classification observed (e.g., synergy observed in both replicates), then the average FICI was reported for that drug combination. If the results for two duplicates are discordant in their classification, a third experiment must be conducted and the average FICI from the triplicate experiments was used for final classification.

[5] = system: Aspergillus fumigatus (strain N0219); experiment: Checkerboard assay, MD3 combined with a secondary antifungal; type: cell-based
Source text: as §6, §7

P. aeruginosa biofilms = experiment: Eradication of P. aeruginosa biofilms (MBEC assay); type: cell-based, Pseudomonas aeruginosa; conditions: aerobic and anaerobic biofilms; treated 18-24 hours
Description: The minimum biofilm eradication concentration (MBEC) of MD3 was determined for P. aeruginosa biofilms grown under aerobic and anaerobic conditions. The MBEC is defined as a 3-log reduction in biofilm-associated CFUs. Biofilms were generated using the MBEC Assay™ growth device (Innovotech; Edmonton, Alberta, Canada) in cation-adjusted Mueller-Hinton broth (CAMHB) at 37° C. for 24 hours and treated with MD3 or tobramycin for an additional 18-24 hours. Remaining biofilms were disrupted by sonication and plated to determine the surviving CFU/mL following a single treatment.

planktonic P. aeruginosa = experiment: Minimum inhibitory concentration (MIC) of an agent alone; type: cell-based; conditions: Pseudomonas aeruginosa, strain PAK grown aerobically
Description: MD3 and secondary antibiotics were tested at 4× their minimum inhibitory concentration (MIC) alone. For example, the MICMD3 against P. aeruginosa strain PAK grown aerobically is 31.25 μg/ml, and the MICTOB is 3.125 μg/ml; thus, the highest concentrations tested in the checkerboard assay were 125 µg/ml MD3 and 12.5 μg/ml TOB. MD3 and antibiotics were tested across a 7-point range of 2-fold concentration, as detailed in Table 3.
as §5, with “Finally, 100 μl of 5×10^5 CFU/ml bacterial culture was added to each well.” left out

[6] = 24 hours, antifungal combined with MD3
[7] = 48 hours, antifungal combined with MD3

## NCC[C@H](O)C(=O)N[C@@H]1C[C@H](N)[C@@H](O[C@H]2O[C@H](CN)[C@@H](O)[C@H](O)[C@H]2O)[C@H](O)[C@H]1O[C@H]1O[C@H](CO)[C@@H](O)[C@H](N)[C@H]1O [AMK, Amikacin]
M. chimaera N0124
  Lowest FICI, rep 1: 0.75
[1]
  Lowest FICI, rep 1: 0.56
[2]
  Lowest FICI, rep 1: 0.56
M. massiliense N0130
  Lowest FICI, rep 1: 0.56
  Lowest FICI, rep 2: 0.56

## C[C@H]1[C@H](NC(=O)/C(=N\OC(C)(C)C(=O)O)c2csc(N)n2)C(=O)N1S(=O)(=O)O [ATM, Aztreonam]
[3]; Aerobic
  Lowest FICI, rep 1: 0.31
  Lowest FICI, rep 2: 0.31
[3]; Anaerobic
  Lowest FICI, rep 1: 0.56

## C[C@@H]1[C@H](O)[C@@H](C)/C=C/C=C/C=C/C=C/C=C/C=C/C=C/[C@H](O[C@@H]2O[C@H](C)[C@@H](O)[C@H](N)[C@@H]2O)C[C@@H]2O[C@](O)(C[C@@H](O)C[C@@H](O)[C@H](O)CC[C@@H](O)C[C@@H](O)CC(=O)O[C@H]1C)C[C@H](O)[C@H]2C(=O)O [Amphotericin B, amphotericin B]
[4]
  Interaction (at 24 hours): Additive
  Lowest FICI (at 24 hours): 0.625
  Interaction (at 48 hours): Additive
  Lowest FICI (at 48 hours): 0.5625

## CC(C)(O/N=C(\C(=O)N[C@@H]1C(=O)N2C(C(=O)[O-])=C(C[n+]3ccccc3)CS[C@H]12)c1csc(N)n1)C(=O)O [CAZ, ceftazidime]
[3]; Aerobic
  Lowest FICI, rep 1: 0.38
  Lowest FICI, rep 2: 0.31
[3]; Anaerobic
  Lowest FICI, rep 1: 0.50

## O=C(O)c1cn(C2CC2)c2cc(N3CCNCC3)c(F)cc2c1=O [CIP, Ciprofloxacin]
[3]; Aerobic
  Lowest FICI, rep 1: 0.56
  Lowest FICI, rep 2: 0.31
  Lowest FICI, rep 3: 0.56
[3]; Anaerobic
  Lowest FICI, rep 1: 0.56

## CC[C@H]1OC(=O)[C@H](C)[C@@H](O[C@H]2C[C@@](C)(OC)[C@@H](O)[C@H](C)O2)[C@H](C)[C@@H](O[C@@H]2O[C@H](C)C[C@H](N(C)C)[C@H]2O)[C@](C)(OC)C[C@@H](C)C(=O)[C@H](C)[C@@H](O)[C@]1(C)O [CLR, Clarithromycin]
M. chimaera N0124
  Lowest FICI, rep 1: 1.00
M. massiliense N0130
  Lowest FICI, rep 1: 0.56
  Lowest FICI, rep 2: 1.00

## O=C([O-])CC(O)(CC(=O)[O-])C(=O)[O-].[Ga+3] [GaCi, Gallium citrate]
[1]
  Lowest FICI, rep 1: 0.56
[2]
  Lowest FICI, rep 1: 0.56
[3]; Aerobic
  Lowest FICI, rep 1: 0.38
  Lowest FICI, rep 2: 0.38
  Lowest FICI, rep 3: 0.25
S. aureus strain N0040
  Interaction of MD3 with the antibiotic (FICI classification): synergistic (FICI values of ≤0.5 are considered synergistic)
S. aureus strain N0040; combined with MD3
  Lowest FICI, rep 1: 0.25
  Lowest FICI, rep 2: 0.19

## CCC(C)n1ncn(-c2ccc(N3CCN(c4ccc(OCC5COC(Cn6cncn6)(c6ccc(Cl)cc6Cl)O5)cc4)CC3)cc2)c1=O (stereo not shown) [Itraconazole, itraconazole]
[5]; [6]
  Lowest FICI (at 24 hours): 0.625
[5]; [7]
  Lowest FICI (at 48 hours): 0.5625

## C[C@@H](O)[C@H]1C(=O)N2C(C(=O)O)=C(S[C@@H]3CN[C@H](C(=O)N(C)C)C3)[C@H](C)[C@H]12 [MER, Meropenem]
[3]; Aerobic
  Lowest FICI, rep 1: 0.53
  Lowest FICI, rep 2: 0.56
[3]; Anaerobic
  Lowest FICI, rep 1: 0.56

## NC[C@H]1O[C@H](O[C@H]2[C@H](O)[C@@H](O[C@H]3O[C@H](CO)[C@@H](O)[C@H](N)[C@H]3O)[C@H](N)C[C@@H]2N)[C@H](N)C[C@@H]1O [TOB, Tobramycin]
P. aeruginosa biofilms
  Biofilm eradication (MBEC, 3-log reduction in biofilm-associated CFUs): only effective against aerobic biofilms
[3]; Aerobic
  Lowest FICI, rep 1: 0.56
  Lowest FICI, rep 2: 0.63
  Lowest FICI, rep 3: 0.56
[3]; Anaerobic
  Lowest FICI, rep 1: 0.56
S. aureus strain N0040
  Interaction of MD3 with the antibiotic (FICI classification): indifferent (values of greater than 1 to 4 are indifferent)
S. aureus strain N0040; combined with MD3
  Lowest FICI, rep 1: 1.03
Planktonic P. aeruginosa
  MIC: 3.12 µg/mL

## C[C@@H](c1ncncc1F)[C@](O)(Cn1cncn1)c1ccc(F)cc1F [Voriconazole, voriconazole]
[4]
  Interaction (at 24 hours): Additive
  Lowest FICI (at 24 hours): 0.375
  Interaction (at 48 hours): Additive
  Lowest FICI (at 48 hours): 0.5625
[4]; time point not separated
  Interaction of MD3 with the antifungal (summary): at least additive
[5]; [6]
  Interaction (at 24 hours): Additive
  Lowest FICI (at 24 hours): 0.625
[5]; [7]
  Interaction (at 48 hours): Additive
  Lowest FICI (at 48 hours): 0.313
[5]; time point not separated
  Interaction of MD3 with the antifungal (summary): at least additive

## Colistin [CST]
[3]; Aerobic
  Lowest FICI, rep 1: 0.56
  Lowest FICI, rep 2: 0.38
[3]; Anaerobic
  Lowest FICI, rep 1: 0.56

## Gentamicin
[3]; Aerobic
  Lowest FICI, rep 1: 1.06
[3]; aerobic conditions
  Interaction of MD3 with the antibiotic (FICI classification): indifferent (values of greater than 1 to 4 are indifferent)
